Experimental data reported in patent publication US11673891B2, “Imidazopyrimidine compounds and uses thereof” (Dana-Farber Cancer Institute, Inc., priority 2017, dated 2023).
“Also recorded” adds a separate entry of the source.

Key:
[1] = tested on: Splenocytes isolated from 6-8 weeks old C57BL/6 mice; experiment: Mouse splenocyte in vitro stimulation, murine IL-6 by ELISA; format: cell-based; conditions: C57BL/6 splenocytes, 33 μM, 18 hours
Experimental: Splenocytes isolated from 6-8 weeks old C57BL/6 mice and human adult PBMCs were stimulated for 18 hours with compound 037 and its analogs at 33 μM. Production of murine IL-6 and human TNF was assessed in cell-free supernatants by ELISA. Results are presented as scatter plot in which each dot represents median production of human TNF (N=3-5) or murine IL-6 (N=6) for each compound.
Spleens were harvested from 6-8 weeks old C57BL/6 mice. For splenocyte isolation, spleens were mashed through a […] strainer, washed with PBS, and erythrocytes were lysed with 2 min of incubation in ammonium chloride-based lysis buffer (BD Biosciences). Cells were then counted and plated 2×10^6 per well (round bottom 96-well plate) in 200 μl of complete culture medium (RPMI 1640 plus 10% heat-inactivated fetal bovine serum [FBS, GE Healthcare HyClone], 50 μM 2-mercaptoethanol, 2 mM 1-glutamine, 100 U/ml penicillin/streptomycin [Gibco ThermoFisher Scientific]) with 0.66 μl of DMSO-dissolved compounds (10 mM) in order to achieve a final compound concentration of 33 μM. After 18 hours of incubation (37° C., 5% CO2), plates were spun down (500×g, room temperature, 5 minutes) and supernatants were harvested for further analysis.

human adult PBMCs = experiment: TNF production by ELISA after stimulation of human adult PBMCs; format: cell-based; conditions: 33 μM, 18 hours
Experimental: Table 1. Activity of Exemplary Imidazopyrimidine Compounds on Stimulating TNF Production in PBMCs as Compared to Compound R848 Table 1 provides the activity of exemplary compounds on stimulating TNF production in PBMCs as compared to the benchmark compound R848. Specifically, TNF production was measured by ELISA after stimulation of adult PBMCs with compound 037 analog family or the compound R848 at 33 μM for 18 hours. Analogs are ranked top to bottom by median percentage TNF production (TNF %) as compared to R848 (N=3-5). The compounds have been classified in the following categories according to TNF %: high activity—class A: TNF %>15%; medium activity—class B: 1%<TNF %≤15%; low activity—class C: TNF %≤1%.
ELISAs and Multiplex-Analyte Assays. Supernatants derived from human PBMCs and DC stimulations were assayed by ELISA for TNF (ThermoFisher Scientific; Waltham, Mass., USA). Cytokine and chemokine expression profiles (e.g., IFNγ, IL-9, IL-10, IL-12 (p70), IL-13, IL-1β, IL-23, IL-27, IL-28A, IL-33, IL-6, MIP-3α/CCL20, and TNF) in cell culture supernatants were measured using a customized Milliplex® Human Th17 Magnetic Bead Panel according to the manufacturer's instructions (Millipore, Chicago, Ill., USA). Assays were read and analyzed on the Luminex® 100/200™ System and xPOTENT® software (Luminex, Austin, Tex.). A minimum threshold was set at the minimum detectable concentration for each individual assay, defined as three standard deviations above the mean background.
PBMCs were isolated from blood using a Ficoll density gradient. PBMCs either used fresh or were stored at 5×10^7 cells per vial in 1 mL RPMI containing 20% autologous plasma and 10% DMSO at −80° C. until use. Stimulation plates were prepared by transferring 0.66 μl of DMSO-dissolved compounds (10 mM) to each well of a round bottom 96-well plate. PBMCs isolated from human adult donors were resuspended at a concentration of 10^5 cells/200 μl of RPMI supplemented with 10% of platelet-poor plasma. 200 μl of the cell suspension were transferred to each well resulting in a final compound concentration of […]. After about 18 hours of incubation (37° C., 5% CO2), plates were spun down (500×g, room temperature, 5 minutes) and supernatants were harvested for further analysis.

With `Cc1cnc2nc(-c3ccc(C)c(NC(=O)c4ccccc4C(F)(F)F)c3)cn2c1` [FRF-02-144-3] the “Production of murine IL-6 by splenocytes (in words)” value [1] was “activates both human PBMCs and mouse splenocytes; also recorded: active on both human and murine cells”, the “TNF (Median)” value (human adult PBMCs; adult PBMCs, ELISA, median, N=3-5, unit not given (FIG. 6B/7B legends: TNF concentration in ng/ml)) was 5.397 and the Activity class (human adult PBMCs; class according to TNF % as compared to R848, adult PBMCs) was “A (high activity—class A: TNF %>15%)”. The “Production of human TNF by PBMCs (in words)” value (human adult PBMCs; human adult PBMCs, ELISA) was “activates both human PBMCs and mouse splenocytes; also recorded: active on both human and murine cells” and the “TNF % (Median)” value (human adult PBMCs; median percentage TNF production as compared to R848, adult PBMCs, N=3-5) was 99.81%.
